The source made the active and inactive calls. No cut-off for these calls is given here.
Columns and labels:
[1] = Photosensitizing ability of the compound in EtOH assessed as singlet oxygen quantum yield at 100 nM under 520nm 30 mW/cm2 light irradiation by DPBF reagent based analysis; format: functional
[2] = Photosensitizing ability of the compound in NaOH assessed as fluorescence quantum yield; format: functional
[3] = Drug localization in endoplasmic reticulum of mouse 4T1 cells assessed as increase in green fluorescence at 2 uM incubated for 12 hrs by confocal scanning microscopy analysis; format: ADME, subcellular; conditions: 4t1, 12 h
[4] = Drug localization in Lipid droplet of mouse 4T1 cells assessed as increase in green fluorescence at 2 uM incubated for 12 hrs by confocal scanning microscopy analysis; format: ADME, subcellular; conditions: 4t1, 12 h
[5] = Drug localization in Lipid droplet of mouse 4T1 cells assessed as increase in green fluorescence by measuring pearson correlation coefficient at 2 uM incubated for 12 hrs by confocal scanning microscopy analysis; format: ADME, subcellular; conditions: 4t1, 12 h
[6] = test system: 4T1; test: (§1) Induction of intracellular ROS generation in mouse 4T1 cells assessed as increase in green fluorescence intensity at 5 to 60 nM incubated in dark for 24 hrs followed by compound removal and measured after 5 mins under 20 mW/cm2H2 white light irradiation by H2-DCFDA staining based fluorescence assay; format: functional, cell-based; conditions: dose 5-60 nM
[7] = test system: 4T1; test: as §1, with “irradiation in presence of NaN3” for “irradiation”; format: functional, cell-based; conditions: dose 5-60 nM
[8] = Phototoxicity in human MDA-MB-231 cells assessed as cell viability preincubated for 24 hrs followed by white light irradiation at 20 mW/cm2 for 10 mins and measured after 24 hrs by MTT assay; format: functional, cell-based; conditions: MDA-MB-231, light or radiation study
[9] = Phototoxicity in mouse 4T1 cells assessed as cell viability preincubated for 24 hrs followed by white light irradiation at 20 mW/cm2 for 10 mins and measured after 24 hrs by MTT assay; format: functional, cell-based; conditions: 4T1, light or radiation study
[10] = Phototoxicity in human MCF7 cells assessed as cell viability preincubated for 24 hrs followed by white light irradiation at 20 mW/cm2 for 10 mins and measured after 24 hrs by MTT assay; format: functional, cell-based; conditions: MCF7, light or radiation study
[11] = Phototoxicity in human Bcap37 cells assessed as cell viability preincubated for 24 hrs followed by white light irradiation at 20 mW/cm2 for 10 mins and measured after 24 hrs by MTT assay; format: functional, cell-based; conditions: Bcap37, light or radiation study
[12] = Darktoxicity in human MDA-MB-231 cells assessed as cell viability preincubated for 24 hrs followed by incubation under dark condition for 24 hrs by MTT assay; format: toxicity, cell-based; conditions: time 48 hrs
[13] = Darktoxicity in human MCF7 cells assessed as cell viability preincubated for 24 hrs followed by incubation under dark condition for 24 hrs by MTT assay; format: toxicity, cell-based; conditions: time 48 hrs
[14] = Darktoxicity in human Bcap37 cells assessed as cell viability preincubated for 24 hrs followed by incubation under dark condition for 24 hrs by MTT assay; format: toxicity, cell-based; conditions: time 48 hrs
[15] = (§2) Photo selectivity index, ratio of CC50 for darktoxicity in human MDA-MB-231 cells assessed as cell viability preincubated for 24 hrs followed by incubation under dark condition for 24 hrs by MTT assay to IC50 for phototoxicity in human MDA-MB-231 cells assessed as cell viability preincubated for 24 hrs followed by white light irradiation at 20 mW/cm2 for 10 mins and measured after 24 hrs by MTT assay; format: toxicity, cell-based; conditions: read-out: Ratio CC50/IC50
[16] = as §2, with “mouse 4T1” for “human MDA-MB-231”; format: toxicity, cell-based; conditions: read-out: Ratio CC50/IC50
[17] = as §2, with “MCF7” for “MDA-MB-231”; format: toxicity, cell-based; conditions: read-out: Ratio CC50/IC50
[18] = as §2, with “Bcap37” for “MDA-MB-231”; format: toxicity, cell-based; conditions: read-out: Ratio CC50/IC50
[19] = Potency index, ratio of IC50 for Chlorin e6 to IC50 for test compound for phototoxicity in human MDA-MB-231 cells assessed as cell viability preincubated for 24 hrs followed by white light irradiation at 20 mW/cm2 for 10 mins and measured after 24 hrs by MTT assay; format: functional; conditions: time 48 hrs
[20] = test system: 4T1; test: Induction of ferroptosis in mouse 4T1 cells assessed as cell viability at 30 nM preincubated for 24 hrs followed by white light irradiation at 20 mW/cm2 and measured after 24 hrs in presence of Z-VAD-FMK by MTT assay; format: functional, cell-based; conditions: time 48.0 hrs
[21] = test system: 4T1; test: Induction of ferroptosis in mouse 4T1 cells assessed as cell viability at 30 nM preincubated for 24 hrs followed by white light irradiation at 20 mW/cm2 and measured after 24 hrs in presence of Nec-1 by MTT assay; format: functional, cell-based; conditions: time 48.0 hrs
[22] = test system: 4T1; test: Induction of ferroptosis in mouse 4T1 cells assessed as cell viability at 30 nM preincubated for 24 hrs followed by white light irradiation at 20 mW/cm2 and measured after 24 hrs in presence of 3-MA by MTT assay; format: functional, cell-based; conditions: time 48.0 hrs
[23] = test system: 4T1; test: Induction of ferroptosis in mouse 4T1 cells assessed as cell viability at 30 nM preincubated for 24 hrs followed by white light irradiation at 20 mW/cm2 and measured after 24 hrs in presence of Fer-1 by MTT assay; format: functional, cell-based; conditions: time 48.0 hrs
[24] = test system: 4T1; test: Induction of ferroptosis in mouse 4T1 cells assessed as decrease in intracellular GSH level at 15 nM preincubated in dark condition for 24 hrs followed by 20mW/cm2 white light irradiation for 10 mins and measured after 12 hrs by colorimetric assay; format: functional, cell-based; conditions: time 2170.0 min
[25] = test system: 4T1; test: Induction of ferroptosis in mouse 4T1 cells assessed as increase in MDA level at 15 nM preincubated in dark condition for 24 hrs followed by 20mW/cm2 white light irradiation for 10 mins and measured after 6 hrs by colorimetric assay; format: functional, cell-based; conditions: time 1810.0 min
[26] = test system: 4T1; test: Induction of ferroptosis in mouse 4T1 cells assessed as increase in intracellular lipid peroxidation accumulation by measuring increase in green fluorescence at 30 nM incubated under dark condition for 24 hrs by C11 BODIPY 581/591 staining based analysis; format: functional, cell-based
[27] = test system: 4T1; test: Induction of ferroptosis in mouse 4T1 cells assessed as increase in intracellular lipid peroxidation accumulation by measuring increase in green fluorescence at 30 nM preincubated for 24 hrs followed by 30 mW/cm2 green light irradiation for 4 mins by C11 BODIPY 581/591 staining based analysis; format: functional, cell-based; conditions: time 1444.0 min
[28] = test system: 4T1; test: Upregulation of Chac1 mRNA expression in mouse 4T1 cells at 10 nM under light irradiation by KEGG analysis; format: functional, cell-based
[29] = test system: 4T1; test: Upregulation of Hmox1 mRNA expression in mouse 4T1 cells at 10 nM under light irradiation by KEGG analysis; format: functional, cell-based
[30] = test system: 4T1; test: Upregulation of Acsl4 mRNA expression in mouse 4T1 cells at 10 nM under light irradiation by KEGG analysis; format: functional, cell-based
[31] = test system: 4T1; test: Upregulation of Chac1 mRNA expression in mouse 4T1 cells at 10 nM preincubated for 24 hrs followed by […] white light irradiation for 10 mins and measured after 12 hrs by qRT-PCR analysis; format: functional, cell-based; conditions: time 2170.0 min
[32] = test system: 4T1; test: Upregulation of Hmox1 mRNA expression in mouse 4T1 cells at 10 nM preincubated for 24 hrs followed by […] white light irradiation for 10 mins and measured after 12 hrs by qRT-PCR analysis; format: functional, cell-based; conditions: time 2170.0 min
[33] = test system: 4T1; test: Upregulation of […] mRNA expression in mouse 4T1 cells at 10 nM preincubated for 24 hrs followed by […] white light irradiation for 10 mins and measured after 12 hrs by qRT-PCR analysis; format: functional, cell-based; conditions: time 2170.0 min
[34] = test system: MDA-MB-231; test: Upregulation of Chac1 mRNA expression in human MDA-MB-231 cells at 10 nM preincubated for 24 hrs followed by […] white light irradiation for 10 mins and measured after 12 hrs by qRT-PCR analysis; format: functional, cell-based; conditions: time 2170.0 min
[35] = test system: MDA-MB-231; test: Upregulation of Hmox1 mRNA expression in human MDA-MB-231 cells at 10 nM preincubated for 24 hrs followed by […] white light irradiation for 10 mins and measured after 12 hrs by qRT-PCR analysis; format: functional, cell-based; conditions: time 2170.0 min
[36] = test system: MDA-MB-231; test: Upregulation of Acsl4 mRNA expression in human MDA-MB-231 cells at 10 nM preincubated for 24 hrs followed by […] white light irradiation for 10 mins and measured after 12 hrs by qRT-PCR analysis; format: functional, cell-based; conditions: time 2170.0 min

With `CC1=C(I)C(C)=[N+]2C1=C(c1nccc3c1[nH]c1ccccc13)c1c(C)c(I)c(C)n1[B-]2(F)F` the Activity [1] was 0.73, the Activity [2] was 0.19 and the Drug uptake [3] was “Active”. For the same molecule, the Drug uptake [4] was “Active”, the Activity [5] was 0.84 and the Activity [6] was “Active”. The Activity [7] was “inactive”, the IC50 [8] was 0.033 µM and the IC50 [9] was 0.023 µM. The IC50 [10] was 0.041 µM, the IC50 [11] was 0.026 µM and the CC50 at 24 h [12] was 27.6 µM. For the same molecule, the CC50 at 24 h [13] was greater than 100 µM, the CC50 at 24 h [14] was greater than 100 µM and the selectivity ratio [15] was 835. The selectivity ratio [16] was 18, the selectivity ratio [17] was greater than 2430 and the selectivity ratio [18] was greater than 3880. The “Ratio IC50” value [19] was 38, the Activity [20] was “inactive” and the Activity [21] was “inactive”. For the same molecule, the Activity [22] was “inactive”, the Activity [23] was “Active” and the Activity [24] was “Active”. The Activity [25] was “Active”, the Activity [26] was “inactive” and the Activity [27] was “Active”. For the same molecule, the Activity [28] was “Active”, the Activity [29] was “Active” and the Activity [30] was “Active”. The Activity [31] was “Active”, the Activity [32] was “Active” and the Activity [33] was “Active”. For the same molecule, the Activity [34] was “Active”, the Activity [35] was “Active” and the Activity [36] was “Active”.

Source: ChEMBL document CHEMBL6103570, “An endoplasmic reticulum and lipid droplets dual-localized strategy to develop small molecular photosensitizers that induce ferroptosis during photodynamic therapy” (Eur J Med Chem, 2025)
